# Data: PubChem BioAssay (NCI)
#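 Dose response: 5 concentrations. Exposure: 48 h. Format: 96-well plates. Endpoint: linear interpolation; highest concentration if not reached. TGI marks complete inhibition of growth.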
# Experiments:
# Assay in all cases: NCI tumour cell line growth inhibition, 48 h
# 786-0 renal = system: 786-0 renal
# A549 NSCLC = system: A549 NSCLC
# ACHN renal = system: ACHN renal
# BT-549 breast = system: BT-549 breast
# CCRF-CEM leukemia = system: CCRF-CEM leukemia
# COLO 205 colon = system: COLO 205 colon
# DU-145 prostate = system: DU-145 prostate
# HCT-116 colon = system: HCT-116 colon
# HCT-15 colon = system: HCT-15 colon
# HL-60(TB) leukemia = system: HL-60(TB) leukemia
# HOP-62 NSCLC = system: HOP-62 NSCLC
# HOP-92 NSCLC = system: HOP-92 NSCLC
# HS 578T breast = system: HS 578T breast
# HT29 colon = system: HT29 colon
# IGROV1 ovarian = system: IGROV1 ovarian
# K-562 leukemia = system: K-562 leukemia
# KM12 colon = system: KM12 colon
# LOX IMVI melanoma = system: LOX IMVI melanoma
# M14 melanoma = system: M14 melanoma
# MALME-3M melanoma = system: MALME-3M melanoma
# MCF7 breast = system: MCF7 breast
# MDA-MB-231 breast = system: MDA-MB-231 breast
# MDA-N = system: MDA-N
# MOLT-4 leukemia = system: MOLT-4 leukemia
# NCI-H23 lung = system: NCI-H23 lung
# NCI-H460 lung = system: NCI-H460 lung
# NCI-H522 lung = system: NCI-H522 lung
# NCI/ADR-RES ovarian = system: NCI/ADR-RES ovarian
# OVCAR-4 ovarian = system: OVCAR-4 ovarian
# OVCAR-5 ovarian = system: OVCAR-5 ovarian
# OVCAR-8 ovarian = system: OVCAR-8 ovarian
# PC-3 prostate = system: PC-3 prostate
# RPMI-8226 leukemia = system: RPMI-8226 leukemia
# RXF 393 renal = system: RXF 393 renal
# SF-268 CNS = system: SF-268 CNS
# SF-295 CNS = system: SF-295 CNS
# SF-539 CNS = system: SF-539 CNS
# SK-MEL-2 melanoma = system: SK-MEL-2 melanoma
# SK-MEL-28 melanoma = system: SK-MEL-28 melanoma
# SK-MEL-5 melanoma = system: SK-MEL-5 melanoma
# SK-OV-3 ovarian = system: SK-OV-3 ovarian
# SN12C renal = system: SN12C renal
# SNB-19 CNS = system: SNB-19 CNS
# SNB-75 CNS = system: SNB-75 CNS
# SR leukemia = system: SR leukemia
# SW-620 colon = system: SW-620 colon
# T-47D breast = system: T-47D breast
# TK-10 renal = system: TK-10 renal
# U251 CNS = system: U251 CNS
# UACC-257 melanoma = system: UACC-257 melanoma
# UACC-62 melanoma = system: UACC-62 melanoma
# UO-31 renal = system: UO-31 renal
# CAKI-1 renal = system: CAKI-1 renal
# EKVX NSCLC = system: EKVX NSCLC
# HCC-2998 colon = system: HCC-2998 colon
# MDA-MB-435 = system: MDA-MB-435
# OVCAR-3 ovarian = system: OVCAR-3 ovarian
# NCI-H226 lung = system: NCI-H226 lung
compound,measurement,setting,value
Cc1ccc(S(=O)(=O)NC(=O)NC(C(=O)O)C(C)C)cc1 (stereo not given),TGI,786-0 renal,> 100 µM
same,TGI,A549 NSCLC,> 100 µM
same,TGI,ACHN renal,> 100 µM
same,TGI,BT-549 breast,> 100 µM
same,TGI,CCRF-CEM leukemia,> 100 µM
same,TGI,COLO 205 colon,> 100 µM
same,TGI,DU-145 prostate,> 100 µM
same,TGI,HCT-116 colon,> 100 µM
same,TGI,HCT-15 colon,> 100 µM
same,TGI,HL-60(TB) leukemia,> 100 µM
same,TGI,HOP-62 NSCLC,> 100 µM
same,TGI,HOP-92 NSCLC,> 100 µM
same,TGI,HS 578T breast,> 100 µM
same,TGI,HT29 colon,> 100 µM
same,TGI,IGROV1 ovarian,> 100 µM
same,TGI,K-562 leukemia,> 100 µM
same,TGI,KM12 colon,> 100 µM
same,TGI,LOX IMVI melanoma,> 100 µM
same,TGI,M14 melanoma,> 100 µM
same,TGI,MALME-3M melanoma,> 100 µM
same,TGI,MCF7 breast,> 100 µM
same,TGI,MDA-MB-231 breast,> 100 µM
same,TGI,MDA-N,> 100 µM
same,TGI,MOLT-4 leukemia,> 100 µM
same,TGI,NCI-H23 lung,> 100 µM
same,TGI,NCI-H460 lung,> 100 µM
same,TGI,NCI-H522 lung,> 100 µM
same,TGI,NCI/ADR-RES ovarian,> 100 µM
same,TGI,OVCAR-4 ovarian,> 100 µM
same,TGI,OVCAR-5 ovarian,> 100 µM
same,TGI,OVCAR-8 ovarian,> 100 µM
same,TGI,PC-3 prostate,> 100 µM
same,TGI,RPMI-8226 leukemia,> 100 µM
same,TGI,RXF 393 renal,> 100 µM
same,TGI,SF-268 CNS,> 100 µM
same,TGI,SF-295 CNS,> 100 µM
same,TGI,SF-539 CNS,> 100 µM
same,TGI,SK-MEL-2 melanoma,> 100 µM
same,TGI,SK-MEL-28 melanoma,> 100 µM
same,TGI,SK-MEL-5 melanoma,> 100 µM
same,TGI,SK-OV-3 ovarian,> 100 µM
same,TGI,SN12C renal,> 100 µM
same,TGI,SNB-19 CNS,> 100 µM
same,TGI,SNB-75 CNS,> 100 µM
same,TGI,SR leukemia,> 100 µM
same,TGI,SW-620 colon,> 100 µM
same,TGI,T-47D breast,> 100 µM
same,TGI,TK-10 renal,> 100 µM
same,TGI,U251 CNS,> 100 µM
same,TGI,UACC-257 melanoma,> 100 µM
same,TGI,UACC-62 melanoma,> 100 µM
same,TGI,UO-31 renal,> 100 µM
O=CN(CCN1CCCC1)C1CCc2cc(Cl)c(Cl)cc2C1 (stereo not given),TGI,786-0 renal,19.9 µM
same,TGI,A549 NSCLC,23.2 µM
same,TGI,BT-549 breast,27.7 µM
same,TGI,CAKI-1 renal,53.8 µM
same,TGI,CCRF-CEM leukemia,43.9 µM
same,TGI,COLO 205 colon,37.8 µM
same,TGI,DU-145 prostate,> 100 µM
same,TGI,EKVX NSCLC,> 100 µM
same,TGI,HCC-2998 colon,31.2 µM
same,TGI,HCT-116 colon,24.9 µM
same,TGI,HCT-15 colon,31.8 µM
same,TGI,HL-60(TB) leukemia,37.2 µM
same,TGI,HOP-62 NSCLC,34.9 µM
same,TGI,HOP-92 NSCLC,> 100 µM
same,TGI,HS 578T breast,42.3 µM
same,TGI,HT29 colon,18.2 µM
same,TGI,IGROV1 ovarian,97.6 µM
same,TGI,K-562 leukemia,51.6 µM
same,TGI,KM12 colon,20.9 µM
same,TGI,LOX IMVI melanoma,27.3 µM
same,TGI,M14 melanoma,29.3 µM
same,TGI,MALME-3M melanoma,27.3 µM
same,TGI,MDA-MB-231 breast,26.1 µM
same,TGI,MDA-MB-435,28.6 µM
same,TGI,MDA-N,23.4 µM
same,TGI,MOLT-4 leukemia,55 µM
same,TGI,NCI-H23 lung,60 µM
same,TGI,NCI-H460 lung,21.4 µM
same,TGI,NCI-H522 lung,23 µM
same,TGI,NCI/ADR-RES ovarian,61.2 µM
same,TGI,OVCAR-3 ovarian,30.6 µM
same,TGI,OVCAR-4 ovarian,> 100 µM
same,TGI,OVCAR-5 ovarian,40.7 µM
same,TGI,OVCAR-8 ovarian,48.6 µM
same,TGI,PC-3 prostate,28.9 µM
same,TGI,RPMI-8226 leukemia,45.3 µM
same,TGI,RXF 393 renal,28.8 µM
same,TGI,SF-268 CNS,> 100 µM
same,TGI,SF-295 CNS,19 µM
same,TGI,SF-539 CNS,48.2 µM
same,TGI,SK-MEL-5 melanoma,42 µM
same,TGI,SK-OV-3 ovarian,29 µM
same,TGI,SN12C renal,> 100 µM
same,TGI,SNB-19 CNS,75 µM
same,TGI,SR leukemia,60.7 µM
same,TGI,SW-620 colon,> 100 µM
same,TGI,T-47D breast,41.3 µM
same,TGI,TK-10 renal,34.8 µM
same,TGI,U251 CNS,24.6 µM
same,TGI,UACC-257 melanoma,30.5 µM
same,TGI,UO-31 renal,27.1 µM
Cc1ccc(-n2c(=O)c3nn4c(=O)n(-c5ccc(C)cc5)c(=O)c4nn3c2=O)cc1,TGI,786-0 renal,> 100 µM
same,TGI,A549 NSCLC,> 100 µM
same,TGI,ACHN renal,> 100 µM
same,TGI,BT-549 breast,> 100 µM
same,TGI,CAKI-1 renal,> 100 µM
same,TGI,CCRF-CEM leukemia,> 100 µM
same,TGI,COLO 205 colon,> 100 µM
same,TGI,DU-145 prostate,> 100 µM
same,TGI,EKVX NSCLC,> 100 µM
same,TGI,HCC-2998 colon,> 100 µM
same,TGI,HCT-116 colon,> 100 µM
same,TGI,HCT-15 colon,> 100 µM
same,TGI,HL-60(TB) leukemia,> 100 µM
same,TGI,HOP-62 NSCLC,> 100 µM
same,TGI,HOP-92 NSCLC,> 100 µM
same,TGI,HS 578T breast,> 100 µM
same,TGI,HT29 colon,> 100 µM
same,TGI,IGROV1 ovarian,> 100 µM
same,TGI,K-562 leukemia,> 100 µM
same,TGI,KM12 colon,> 100 µM
same,TGI,LOX IMVI melanoma,> 100 µM
same,TGI,M14 melanoma,> 100 µM
same,TGI,MALME-3M melanoma,> 100 µM
same,TGI,MCF7 breast,> 100 µM
same,TGI,MDA-MB-435,> 100 µM
same,TGI,MDA-N,> 100 µM
same,TGI,MOLT-4 leukemia,> 100 µM
same,TGI,NCI-H226 lung,> 100 µM
same,TGI,NCI-H23 lung,> 100 µM
same,TGI,NCI-H460 lung,> 100 µM
same,TGI,NCI-H522 lung,> 100 µM
same,TGI,NCI/ADR-RES ovarian,> 100 µM
same,TGI,OVCAR-3 ovarian,> 100 µM
same,TGI,OVCAR-4 ovarian,> 100 µM
same,TGI,OVCAR-5 ovarian,> 100 µM
same,TGI,OVCAR-8 ovarian,> 100 µM
same,TGI,PC-3 prostate,> 100 µM
same,TGI,RPMI-8226 leukemia,> 100 µM
same,TGI,RXF 393 renal,> 100 µM
same,TGI,SF-268 CNS,> 100 µM
same,TGI,SF-295 CNS,> 100 µM
same,TGI,SF-539 CNS,> 100 µM
same,TGI,SK-MEL-2 melanoma,> 100 µM
same,TGI,SK-MEL-28 melanoma,> 100 µM
same,TGI,SK-MEL-5 melanoma,> 100 µM
same,TGI,SK-OV-3 ovarian,> 100 µM
same,TGI,SN12C renal,> 100 µM
same,TGI,SNB-19 CNS,> 100 µM
same,TGI,SNB-75 CNS,> 100 µM
same,TGI,SR leukemia,> 100 µM
same,TGI,SW-620 colon,> 100 µM
same,TGI,T-47D breast,> 100 µM
same,TGI,TK-10 renal,> 100 µM
same,TGI,U251 CNS,> 100 µM
same,TGI,UACC-257 melanoma,> 100 µM
same,TGI,UACC-62 melanoma,> 100 µM
same,TGI,UO-31 renal,> 100 µM
